Assay [1] has as its target Tyrosine-protein kinase Fyn (Homo sapiens, UniProt P06241). Briefly: Inhibitory activity against p55 Fyn tyrosine kinase.
In assay [2] the target is Tyrosine-protein kinase Lyn (Homo sapiens, UniProt P07948). Briefly: Inhibitory activity against p56 Lyn tyrosine kinase.
Assay [3] deals with Proto-oncogene tyrosine-protein kinase Src (Homo sapiens, UniProt P12931). Briefly: Inhibitory activity against p60 c-Src tyrosine kinase.
For assay [4], the target named is Tyrosine-protein kinase Lck (Homo sapiens, UniProt P06239). As to the kind of experiment: Inhibitory activity against p56 Lck tyrosine kinase.
Tyrosine-protein kinase Lck, sequence (P06239 whole entry): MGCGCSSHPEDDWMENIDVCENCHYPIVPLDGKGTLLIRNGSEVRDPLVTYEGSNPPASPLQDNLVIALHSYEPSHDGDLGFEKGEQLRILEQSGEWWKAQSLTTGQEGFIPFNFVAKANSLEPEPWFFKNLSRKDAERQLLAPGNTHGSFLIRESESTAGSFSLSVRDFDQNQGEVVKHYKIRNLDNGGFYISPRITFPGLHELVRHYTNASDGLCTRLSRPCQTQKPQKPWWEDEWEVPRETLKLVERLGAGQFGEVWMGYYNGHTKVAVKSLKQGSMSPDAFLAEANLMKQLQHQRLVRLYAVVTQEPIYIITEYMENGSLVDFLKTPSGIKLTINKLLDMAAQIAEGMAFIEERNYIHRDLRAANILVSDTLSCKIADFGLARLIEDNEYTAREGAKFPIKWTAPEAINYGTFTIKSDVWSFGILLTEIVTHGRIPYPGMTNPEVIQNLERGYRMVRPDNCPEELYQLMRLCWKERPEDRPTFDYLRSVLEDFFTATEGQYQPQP

A value given as a limit tells only on which side of the number the result lay.

Tyrosine-protein kinase Lyn, sequence (P07948 whole entry): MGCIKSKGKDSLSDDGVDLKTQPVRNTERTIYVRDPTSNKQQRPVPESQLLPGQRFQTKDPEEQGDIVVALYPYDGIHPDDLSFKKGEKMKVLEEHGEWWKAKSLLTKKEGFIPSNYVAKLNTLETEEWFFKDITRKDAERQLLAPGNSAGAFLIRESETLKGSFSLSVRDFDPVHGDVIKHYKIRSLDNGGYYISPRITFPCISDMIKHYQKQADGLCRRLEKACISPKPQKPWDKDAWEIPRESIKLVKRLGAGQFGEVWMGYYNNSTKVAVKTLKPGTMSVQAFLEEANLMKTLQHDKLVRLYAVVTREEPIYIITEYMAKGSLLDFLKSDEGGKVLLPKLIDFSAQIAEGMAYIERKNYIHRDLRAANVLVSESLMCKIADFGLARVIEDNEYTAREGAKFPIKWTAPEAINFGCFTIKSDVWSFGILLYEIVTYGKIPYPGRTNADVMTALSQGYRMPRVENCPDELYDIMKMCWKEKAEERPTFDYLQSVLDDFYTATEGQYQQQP
Tyrosine-protein kinase Fyn, sequence (P06241 whole entry): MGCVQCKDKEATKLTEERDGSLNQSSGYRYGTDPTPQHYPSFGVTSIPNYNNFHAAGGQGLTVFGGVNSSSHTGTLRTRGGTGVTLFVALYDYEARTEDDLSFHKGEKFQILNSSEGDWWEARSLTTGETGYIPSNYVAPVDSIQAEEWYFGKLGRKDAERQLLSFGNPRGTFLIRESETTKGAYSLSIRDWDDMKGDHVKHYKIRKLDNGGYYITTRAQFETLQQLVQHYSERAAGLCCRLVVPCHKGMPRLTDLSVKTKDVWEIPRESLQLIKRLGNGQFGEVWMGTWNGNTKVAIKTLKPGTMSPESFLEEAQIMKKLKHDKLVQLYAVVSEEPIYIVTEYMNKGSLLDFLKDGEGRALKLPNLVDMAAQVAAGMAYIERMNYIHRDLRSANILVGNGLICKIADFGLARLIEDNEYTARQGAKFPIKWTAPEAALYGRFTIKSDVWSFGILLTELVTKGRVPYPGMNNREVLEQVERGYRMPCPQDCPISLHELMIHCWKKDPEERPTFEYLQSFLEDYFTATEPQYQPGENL
Proto-oncogene tyrosine-protein kinase Src, sequence (P12931 2-536 limits assumed): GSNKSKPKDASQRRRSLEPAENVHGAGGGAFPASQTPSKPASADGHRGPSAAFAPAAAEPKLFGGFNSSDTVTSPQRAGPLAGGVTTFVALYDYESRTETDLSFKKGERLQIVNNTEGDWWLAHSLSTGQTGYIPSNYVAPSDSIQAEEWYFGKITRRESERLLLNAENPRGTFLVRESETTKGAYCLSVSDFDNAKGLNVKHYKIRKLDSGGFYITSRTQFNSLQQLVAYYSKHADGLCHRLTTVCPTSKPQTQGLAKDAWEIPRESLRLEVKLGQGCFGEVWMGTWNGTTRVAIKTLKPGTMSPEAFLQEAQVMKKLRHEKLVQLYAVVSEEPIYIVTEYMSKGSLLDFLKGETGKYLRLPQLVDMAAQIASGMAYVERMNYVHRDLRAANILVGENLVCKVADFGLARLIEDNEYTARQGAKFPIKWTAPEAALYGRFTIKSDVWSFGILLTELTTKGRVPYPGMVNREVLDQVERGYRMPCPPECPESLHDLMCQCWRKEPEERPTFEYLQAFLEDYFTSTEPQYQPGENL

With `N=c1oc2c(O)c(O)ccc2cc1C(=O)Nc1ccccc1CO`, the IC50 in assay [1] and in assay [2] was > 61.3 µM throughout. Take `COc1ccc2cc(C(=O)Nc3ccc(O)cc3)c(=N)oc2c1`: the IC50 in assay [3] and in assay [4] was > 32.2 µM each time.

`N=c1oc2cc(O)ccc2cc1C(=O)Nc1ccc(O)cc1`: the IC50 in assay [4] was > 33.8 µM. The same measure, in the same setting: the figure for `N=c1oc2cc(O)ccc2cc1C(=O)Nc1cccc(O)c1` is > 33.8 µM. Consider `N=c1oc2cc(O)cc(O)c2cc1C(=O)Nc1ccccc1O`, for which, in assay [2], the half-inhibitory concentration (IC50) was > 16 µM. Consider `N=c1oc2ccccc2cc1C(=O)Nc1ccccc1O`, for which the IC50 in assay [3] is > 71.4 µM. Consider `N=c1oc2c(O)cccc2cc1C(=O)Nc1ccc(O)cc1`, for which, in assay [1], the IC50 was > 67.5 µM. With `N=c1oc2c(O)c(O)ccc2cc1C(=O)Nc1ccc(O)cc1`, the IC50 in assay [1] and in assay [2] was > 64 µM throughout.

Turning to `N=c1oc2ccc(O)cc2cc1C(=O)Nc1cccc(O)c1`, the IC50 in assay [4] was > 33.8 µM. For `N=c1oc2c(O)c(O)ccc2cc1C(=O)Nc1ccccc1O`, the IC50 in assay [1] and in assay [2] was > 64 µM throughout. With `N=c1oc2c(O)c(O)ccc2cc1C(=O)Nc1ccccc1`, the IC50 in assay [3], in assay [1], in assay [2] and in assay [4] was > 67.5 µM each time. On to `N=c1oc2c(O)c(O)ccc2cc1C(=O)Nc1cccc(O)c1`, for which, in assay [1], the IC50 is > 64 µM. On to `N=c1oc2c(O)cccc2cc1C(=O)Nc1cccc(CO)c1`, for which the IC50 in assay [1] is 9.67 µM; in assay [2], 64.5 µM. Turning to `N=c1oc2c(O)cccc2cc1C(=O)Nc1ccccc1O`, the IC50 in assay [3] is > 33.8 µM; in assay [1] it was > 67.5 µM; in assay [2], > 67.5 µM.

For `N=c1oc2ccc(O)cc2cc1C(=O)Nc1ccc(O)cc1`, in assay [4], the IC50 is > 33.8 µM. In the case of `N=c1oc2c(O)c(O)ccc2cc1C(=O)Nc1cccc(CO)c1`, the IC50 in assay [1] and in assay [4] was > 61.3 µM in each case. In the case of `N=c1oc2ccccc2cc1C(=O)Nc1ccc(O)cc1`, the IC50 in assay [3] was > 71.4 µM. Turning to `N=c1oc2c(O)cccc2cc1C(=O)Nc1cccc(O)c1`, the IC50 in assay [2] was < 33.8 µM.
